What follows are compounds tested against recombinant Human Phosphodiesterase B2 (PDE4B2) (Homo sapiens, UniProt Q07343) (assay: Human Phosphodiesterase B2 Radiometric Assay (yttrium silicate SPA beads, [3H]cyclic AMP)). Conditions: recombinant human PDE4B2, radiometric SPA assay, 8 nM [3H]cyclic AMP; read-out: PDE4B2 pIC50 (converted).
Format: biochemical
Outline: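 Compounds were preincubated 30 min at 30 °C with 0.1 mg/mL PDE4B2 in 50 mM HEPES pH 7.5, 8.3 mM MgCl2, 1.7 mM EGTA, 0.01% Brij 35. Then 8 nM [3H]cAMP was added for 20 min, stopped with yttrium silicate SPA beads plus 18 mM ZnSO4 capturing product 5′AMP; pIC50 by curve fitting.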

Chain of recombinant Human Phosphodiesterase B2 (PDE4B2) (Q07343 1-564 isoform Q07343-2): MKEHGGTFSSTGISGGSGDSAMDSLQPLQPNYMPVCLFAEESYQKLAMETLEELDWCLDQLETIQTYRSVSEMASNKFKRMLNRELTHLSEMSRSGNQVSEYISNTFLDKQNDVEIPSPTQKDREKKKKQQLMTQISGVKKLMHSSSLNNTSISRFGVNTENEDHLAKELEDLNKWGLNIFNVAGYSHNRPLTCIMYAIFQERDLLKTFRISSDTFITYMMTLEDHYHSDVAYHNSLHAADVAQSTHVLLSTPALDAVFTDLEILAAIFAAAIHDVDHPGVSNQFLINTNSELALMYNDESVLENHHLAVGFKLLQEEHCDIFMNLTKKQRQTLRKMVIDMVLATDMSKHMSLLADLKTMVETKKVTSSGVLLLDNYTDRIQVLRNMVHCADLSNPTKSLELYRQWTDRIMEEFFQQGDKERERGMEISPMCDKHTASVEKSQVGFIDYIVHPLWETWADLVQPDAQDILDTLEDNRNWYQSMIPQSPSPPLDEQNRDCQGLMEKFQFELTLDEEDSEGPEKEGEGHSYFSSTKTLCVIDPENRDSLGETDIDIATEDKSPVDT

In order of falling IC50:
1. CCCNC1(C(=O)N[C@H]2CC[C@@H](n3c(=O)c4cc(F)cnc4n(-c4cccc(-c5ccccc5CN5CCOCC5)c4)c3=O)CC2)CCCC1 [Example 275, N-{cis-4-[6-Fluoro-1-[2′-(morpholin-4-ylmethyl)biphenyl-3-yl]-2,4-dioxo-1,4-dihydropyrido[2,3-d]pyrimidin-3(2H)-yl]cyclohexyl}-1-(propylamino)cyclopentanecarboxamide]  3980 pM
2. CN(Cc1cn2cc(F)ccc2n1)[C@H]1CC[C@@H](n2c(=O)c3cc(F)cnc3n(-c3cccc(-c4ccc(O)cc4CN4CCOCC4)c3)c2=O)CC1 [Example 286, 6-fluoro-3-{cis-4-[[(6-fluoroimidazo[1,2-a]pyridin-2-yl)methyl](methyl)amino]cyclohexyl}-1-[4′-hydroxy-2′-(morpholin-4-ylmethyl)biphenyl-3-yl]pyrido[2,3-d]pyrimidine-2,4(1H,3H)-dione]  2000 pM
3. CN1CCCN(Cc2ccc(-c3cccc(-n4c(=O)n([C@H]5CC[C@@H](NC(=O)CCN6CCCCC6)CC5)c(=O)c5cc(F)cnc54)c3)cc2)CC1 [Example 293, N-{cis-4-[6-fluoro-1-{4′-[(4-methyl-1,4-diazepan-1-yl)methyl]biphenyl-3-yl}-2,4-dioxo-1,4-dihydropyrido[2,3-d]pyrimidin-3(2H)-yl]cyclohexyl}-3-piperidin-1-ylpropanamide]  2000 pM
4. CC(C)c1ccc(CN[C@H]2CC[C@@H](n3c(=O)c4cc(F)cnc4n(-c4cccc(-c5ccc(O)cc5CN5CCOCC5)c4)c3=O)CC2)cc1 [Example 283, 6-fluoro-1-[4′-hydroxy-2′-(morpholin-4-ylmethyl)biphenyl-3-yl]-3-{cis-4-[(4-isopropylbenzyl)amino]cyclohexyl} pyrido[2,3-d]pyrimidine-2,4(1H,3H)-dione]  1260 pM
5. O=c1c2cc(F)cnc2n(-c2cccc(-c3ccc(O)cc3CN3CCOCC3)c2)c(=O)n1[C@H]1CC[C@@H](NCc2ccc(Cl)cc2)CC1 [Example 281, 3-{cis-4-{(4-chlorobenzyl)amino]cyclohexyl}-6-fluoro-1-[4′-hydroxy-2′-(morpholin-4-ylmethyl)biphenyl-3-yl]pyrido[2,3-d]pyrimidine-2,4(1H,3H)-dione]  1000 pM
6. CN(C)Cc1cc(O)ccc1-c1cccc(-n2c(=O)n([C@H]3CC[C@@H](NCc4cn5cc(F)ccc5n4)CC3)c(=O)c3cc(F)cnc32)c1 [Example 277, 1-{2′-[(dimethylamino)methyl]-4′-hydroxybiphenyl-3-yl}-6-fluoro-3-(cis-4-{[(6-fluoroimidazo[1,2-a]pyridin-2-yl)methyl]amino}cyclohexyl)pyrido[2,3-d]pyrimidine-2,4(1H,3H)-dione]  794 pM
7. Cc1ccc(CN[C@H]2CC[C@@H](n3c(=O)c4cc(F)cnc4n(-c4cccc(-c5ccc(O)cc5CN5CCOCC5)c4)c3=O)CC2)cc1 [Example 278, 6-fluoro-1-[4′-hydroxy-2′-(morpholin-4-ylmethyl)biphenyl-3-yl]-3-{cis-4-[(4-methylbenzyl)amino]cyclohexyl}pyrido[2,3-d] pyrimidine-2,4(1H,3H)-dione]  794 pM
8. O=c1c2cc(F)cnc2n(-c2cccc(-c3ccc(O)cc3CN3CCOCC3)c2)c(=O)n1[C@H]1CC[C@@H](NCc2cccc(F)c2O)CC1 [Example 280, 6-fluoro-3-{cis-4-[(3-fluoro-2-hydroxybenzyl)amino]cyclohexyl}-1-[4′-hydroxy-2′-(morpholin-4-ylmethyl)biphenyl-3-yl]pyrido[2,3-d]pyrimidine-2,4(1H,3H)-dione]  794 pM
9. O=c1c2cc(F)cnc2n(-c2cccc(-c3ccc(O)cc3CN3CCOCC3)c2)c(=O)n1[C@H]1CC[C@@H](NCc2cc(F)ccc2F)CC1 [Example 282, 3-{cis-4-[(2,5-difluorobenzyl)amino]cyclohexyl}-6-fluoro-1-[4′-hydroxy-2′-(morpholin-4-ylmethyl)biphenyl-3-yl]pyrido[2,3-d]pyrimidine-2,4(1H,3H)-dione]  794 pM
10. O=c1c2cc(F)cnc2n(-c2cccc(-c3ccc(O)cc3CN3CCOCC3)c2)c(=O)n1[C@H]1CC[C@@H](NCc2ccccc2F)CC1 [Example 285, 6-fluoro-3-{cis-4-[(2-fluorobenzyl)amino]cyclohexyl}-1-[4′-hydroxy-2′-(morpholin-4-ylmethyl)biphenyl-3-yl]pyrido[2,3-d]pyrimidine-2,4(1H,3H)-dione]  794 pM
11. CN(C)CC(=O)N[C@H]1CC[C@@H](n2c(=O)c3cc(F)cnc3n(-c3cccc(-c4ccc(CN5CCCN(C)CC5)cc4)c3)c2=O)CC1 [Example 287, N-{cis-4-[6-fluoro-1-{4′-[(4-methyl-1,4-diazepan-1-yl)methyl]biphenyl-3-yl}-2,4-dioxo-1,4-dihydropyrido[2,3-d]pyrimidin-3(2H)-yl]cyclohexyl}-N^2,N^2-dimethylglycinamide]  631 pM
12. CN1CCN(CC(=O)N[C@H]2CC[C@@H](n3c(=O)c4cc(F)cnc4n(-c4cccc(-c5ccc(CN6CCCN(C)CC6)cc5)c4)c3=O)CC2)CC1 [Example 291, N-{cis-4-[6-fluoro-1-{4′-[(4-methyl-1,4-diazepan-1-yl)methyl]biphenyl-3-yl}-2,4-dioxo-1,4-dihydropyrido[2,3-d]pyrimidin-3(2H)-yl]cyclohexyl}-2-(4-methylpiperazin-1-yl)acetamide]  200 pM
13. O=C(N[C@H]1CC[C@@H](n2c(=O)c3cc(F)cnc3n(-c3cccc(-c4ccc(CN5CCN(C6CCCC6)CC5)cc4)c3)c2=O)CC1)c1cnccn1 [Example 295, N-{cis-4-[1-{4′-[(4-cyclopentylpiperazin-1-yl)methyl]biphenyl-3-yl}-6-fluoro-2,4-dioxo-1,4-dihydropyrido[2,3-d]pyrimidin-3(2H)-yl]cyclohexyl} pyrazine-2-carboxamide]  100 pM
14. Cc1cccc(CN[C@H]2CC[C@@H](n3c(=O)c4cc(F)cnc4n(-c4cccc(-c5ccc(O)cc5CN5CCOCC5)c4)c3=O)CC2)n1 [Example 284, 6-fluoro-1-{4′-hydroxy-2′-(morpholin-4-ylmethyl)biphenyl-3-yl]-3-(cis-4-{[(6-methylpyridin-2-yl)methyl]amino}cyclohexyl)pyrido [2,3-d]pyrimidine-2,4(1H,3H)-dione]  79.4 pM
15. O=C(N[C@H]1CC[C@@H](n2c(=O)c3cc(F)cnc3n(-c3cccc(-c4ccc(CN5CCNCC5)cc4O)c3)c2=O)CC1)c1cn2cc(F)ccc2n1 [Example 274, 6-Fluoro-N-{cis-4-[6-fluoro-1-[2′-hydroxy-4′-(piperazin-1-ylmethyl)biphenyl-3-yl]-2,4-dioxo-1,4-dihydropyrido[2,3-d]pyrimidin-3(2H)-yl]cyclohexyl}imidazo[1,2-a]pyridine-2-carboxamide]  63.1 pM
16. Cc1cnc(C(=O)N[C@H]2CC[C@@H](n3c(=O)c4cc(F)cnc4n(-c4cccc(-c5ccc(CN6CCN(C7CCCC7)CC6)cc5)c4)c3=O)CC2)cn1 [Example 288, N-{cis-4-[1-{4′-[(4-cyclopentylpiperazin-1-yl)methyl]biphenyl-3-yl}-6-fluoro-2,4-dioxo-1,4-dihydropyrido[2,3-d]pyrimidin-3(2H)-yl]cyclohexyl}-5-methylpyrazine-2-carboxamide]  50.1 pM
17. O=c1c2cc(F)cnc2n(-c2cccc(-c3ccc(O)cc3CN3CCOCC3)c2)c(=O)n1[C@H]1CC[C@@H](NCc2cc3ccccc3o2)CC1 [Example 279, 3-{cis-4-[(1-benzofuran-2-ylmethyl)amino]cyclohexyl}-6-fluoro-1-[4′-hydroxy-2′-(morpholin-4-ylmethyl)biphenyl-3-yl]pyrido[2,3-d]pyrimidine-2,4(1H,3H)-dione]  39.8 pM
18. CN1CCCN(Cc2ccc(-c3cccc(-n4c(=O)n([C@H]5CC[C@@H](NC(=O)CN6CCCCC6)CC5)c(=O)c5cc(F)cnc54)c3)cc2)CC1 [Example 292, N-{cis-4-[6-fluoro-1-{4′-[(4-methyl-1,4-diazepan-1-yl)methyl]biphenyl-3-yl}-2,4-dioxo-1,4-dihydropyrido[2,3-d]pyrimidin-3(2H)-yl]cyclohexyl}-2-piperidin-1-ylacetamide]  31.6 pM
19. Cc1cccc(C(=O)N[C@H]2CC[C@@H](n3c(=O)c4cc(F)cnc4n(-c4cccc(-c5ccc(CN6CCN(C7CCCC7)CC6)cc5)c4)c3=O)CC2)n1 [Example 294, N-{cis-4-[1-{4′-[(4-cyclopentylpiperazin-1-yl)methyl]biphenyl-3-yl}-6-fluoro-2,4-dioxo-1,4-dihydropyrido[2,3-d]pyrimidin-3(2H)-yl]cyclohexyl}-6-methylpyridine-2-carboxamide]  15.8 pM
20. Cc1cc(C(=O)N[C@H]2CC[C@@H](n3c(=O)c4cc(F)cnc4n(-c4cccc(-c5ccc(CN6CCC(N7CCCCC7)CC6)cc5)c4)c3=O)CC2)nn1C [Example 289, N-{cis-4-[1-[4′-(1,4′-bipiperidin-1′-ylmethyl)biphenyl-3-yl]-6-fluoro-2,4-dioxo-1,4-dihydropyrido[2,3-d]pyrimidin-3(2H)-yl]cyclohexyl}-1,5-dimethyl-1H-pyrazole-3-carboxamide]  12.6 pM
21. Cc1cccc(C(=O)N[C@H]2CC[C@@H](n3c(=O)c4cc(F)cnc4n(-c4cccc(-c5ccc(CN6C[C@@H](C)N[C@@H](C)C6)cc5)c4)c3=O)CC2)n1 [Example 290, N-{cis-4-[1-(4′-{[(3R,5S)-3,5-dimethylpiperazin-1-yl]methyl}biphenyl-3-yl)-6-fluoro-2,4-dioxo-1,4-dihydropyrido[2,3-d]pyrimidin-3(2H)-yl]cyclohexyl}-6-methylpyridine-2-carboxamide]  10 pM
22. O=C(N[C@H]1CC[C@@H](n2c(=O)c3cc(F)cnc3n(-c3cccc(-c4ccc(CN5CCC(N6CCCCC6)CC5)cc4)c3)c2=O)CC1)c1cnc2ccccc2n1 [Example 296, N-{cis-4-[1-[4′-(1,4′-bipiperidin-1′-ylmethyl)biphenyl-3-yl]-6-fluoro-2,4-dioxo-1,4-dihydropyrido[2,3-d]pyrimidin-3(2H)-yl]cyclohexyl} quinoxaline-2-carboxamide]  10 pM

From US20100204203A1, “Chemical Compounds 637: Pyridopyrimidinediones as PDE4 Inhibitors” (priority 2007, published 2010)
